Among the data in US20230144824A1, “1H-PYRAZOLO[4,3-d]PYRIMIDINE COMPOUNDS AS TOLL-LIKE RECEPTOR 7 (TLR7) AGONISTS” (BRISTOL-MYERS SQUIBB COMPANY, priority 2020, published 2023) are EC50 values, retold here.

The target in assay [1] is T1, human TLR7 (Homo sapiens, UniProt Q9NYK1).
T1 construct: host or cells: HEK-Blue TLR7 cells (engineered human embryonic kidney cells)
T1 sequence (Q9NYK1 27-1049): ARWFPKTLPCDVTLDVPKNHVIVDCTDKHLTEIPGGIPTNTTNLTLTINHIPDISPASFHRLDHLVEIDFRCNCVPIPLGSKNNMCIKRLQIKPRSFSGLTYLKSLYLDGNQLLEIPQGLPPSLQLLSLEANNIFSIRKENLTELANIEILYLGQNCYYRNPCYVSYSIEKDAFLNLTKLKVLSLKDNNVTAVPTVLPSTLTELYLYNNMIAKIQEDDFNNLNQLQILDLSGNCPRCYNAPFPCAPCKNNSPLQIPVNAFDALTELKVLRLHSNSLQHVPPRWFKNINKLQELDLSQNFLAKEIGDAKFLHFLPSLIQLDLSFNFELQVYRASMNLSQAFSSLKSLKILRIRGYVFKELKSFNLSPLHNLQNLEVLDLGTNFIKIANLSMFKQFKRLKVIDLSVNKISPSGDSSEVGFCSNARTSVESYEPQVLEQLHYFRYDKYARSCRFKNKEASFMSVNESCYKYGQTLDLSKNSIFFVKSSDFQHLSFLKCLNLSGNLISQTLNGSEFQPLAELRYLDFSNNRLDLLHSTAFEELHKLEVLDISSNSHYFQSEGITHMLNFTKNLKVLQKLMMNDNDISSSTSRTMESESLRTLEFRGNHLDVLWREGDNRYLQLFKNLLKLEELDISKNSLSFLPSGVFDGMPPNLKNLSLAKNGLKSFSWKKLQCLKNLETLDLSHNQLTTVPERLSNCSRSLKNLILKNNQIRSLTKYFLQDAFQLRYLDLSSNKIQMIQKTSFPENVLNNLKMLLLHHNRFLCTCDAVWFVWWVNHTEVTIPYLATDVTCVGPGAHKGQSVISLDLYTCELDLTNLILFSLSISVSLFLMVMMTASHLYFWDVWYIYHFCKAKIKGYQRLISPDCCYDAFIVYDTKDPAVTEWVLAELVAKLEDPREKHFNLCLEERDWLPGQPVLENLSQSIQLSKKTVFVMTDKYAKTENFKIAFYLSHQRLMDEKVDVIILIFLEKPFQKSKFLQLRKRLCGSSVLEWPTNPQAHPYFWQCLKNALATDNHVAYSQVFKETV
The assay is described as follows: Human TLR7 agonist activity assay (HEK-Blue TLR7 SEAP reporter). It counts as cell-based. As to conditions: HEK-Blue TLR7 cells, 18 h treatment, average where assay performed multiple times, read-out: hTLR7 Agonism EC50. A digest of the protocol: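 HEK-Blue TLR7 cells (15,000/well) treated with compound for 18 h at 37 °C, 5% CO2. Secreted SEAP measured with Quanti-Blue, 30 min, OD 620 nm. EC50 taken as concentration giving half-maximal response between baseline and maximum.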

Assay [2] relates to CD69. The assay is described as follows: Induction of CD69 in human whole blood. It counts as cell-based. To be noted: Homo sapiens, 17 h, 100% set to 1 uM of resiquimod, average where assay performed multiple times, read-out: hWB CD69 EC50. A digest of the protocol:
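Heparinized human whole blood treated with TLR7 agonist at final 1 uM and incubated 17 h at 37° C. CD69 surface staining alongside CD14 and CD19, then fix/lysis and flow cytometry on iQuePlus. Curves fitted with 1 uM resiquimod set as 100%.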

As to `CCCCNc1nc(N)nc2cnn(Cc3cc(F)c(N4CCN(S(C)(=O)=O)CC4)cc3OC)c12` [Compound 193, N7-butyl-1-{[5-fluoro-4-(4-methanesulfonylpiperazin-1-yl)-2-methoxyphenyl]methyl}-1H-pyrazolo[4,3-d]pyrimidine-5,7-diamine], the EC50 (in general, the concentration at which the effect is half-maximal) in assay [1] was determined as 84.9 nM; in assay [2], 529 nM.
In the same order, the values of `CCCCNc1nc(N)nc2cnn(Cc3cc(F)c(N4CCN(C(=O)CN5CC(OC)C5)CC4)cc3OC)c12` [Compound 194, 1-[4-(4-{[5-amino-7-(butylamino)-1H-pyrazolo[4,3-d]pyrimidin-1-yl]methyl}-2-fluoro-5-methoxyphenyl)piperazin-1-yl]-2-(3-methoxyazetidin-1-yl)ethan-1-one] are 63.1 nM and 37.1 nM.
For `CCCCNc1nc(N)nc2cnn(Cc3cc(F)c(N4CCN(C(=O)CNC5CCOCC5)CC4)cc3OC)c12` [Compound 195, 1-[4-(4-{[5-amino-7-(butylamino)-1H-pyrazolo[4,3-d]pyrimidin-1-yl]methyl}-2-fluoro-5-methoxyphenyl)piperazin-1-yl]-2-[(oxan-4-yl)amino]ethan-1-one], in that order: 53.3 nM and 128 nM.
On to `CCCCNc1nc(N)nc2cnn(Cc3cc(F)c(N4CCN(C(=O)CNCC(C)(C)O)CC4)cc3OC)c12` [Compound 196, 1-[4-(4-{[5-amino-7-(butylamino)-1H-pyrazolo[4,3-d]pyrimidin-1-yl]methyl}-2-fluoro-5-methoxyphenyl)piperazin-1-yl]-2-[(2-hydroxy-2-methylpropyl)amino]ethan-1-one], for which the EC50 in assay [1] stood at 131 nM; in assay [2], 81 nM.
For `CCCCNc1nc(N)nc2cnn(Cc3cc(F)c(N4CCN(C(=O)CNCCS(C)(=O)=O)CC4)cc3OC)c12` [Compound 197, 1-[4-(4-{[5-amino-7-(butylamino)-1H-pyrazolo[4,3-d]pyrimidin-1-yl]methyl}-2-fluoro-5-methoxyphenyl)piperazin-1-yl]-2-[(2-methanesulfonylethyl)amino]ethan-1-one], in that order: 320 nM and 1000 nM.
For `CCCCNc1nc(N)nc2cnn(Cc3cc(F)c(N4CCN(C(=O)CN5CCC[C@H]5CO)CC4)cc3OC)c12` [Compound 198, 1-[4-(4-{[5-amino-7-(butylamino)-1H-pyrazolo[4,3-d]pyrimidin-1-yl]methyl}-2-fluoro-5-methoxyphenyl)piperazin-1-yl]-2-[(2S)-2-(hydroxymethyl)pyrrolidin-1-yl]ethan-1-one], in that order: 48.2 nM and 50.9 nM.
Regarding `CCCCNc1nc(N)nc2cnn(Cc3cc(F)c(N4CCN(C(=O)CN5CC(O)C5)CC4)cc3OC)c12` [Compound 199, 1-[4-(4-{[5-amino-7-(butylamino)-1H-pyrazolo[4,3-d]pyrimidin-1-yl]methyl}-2-fluoro-5-methoxyphenyl)piperazin-1-yl]-2-(3-hydroxyazetidin-1-yl)ethan-1-one], the values for the concentration giving a half-maximal response (EC50) in assay [1] and in assay [2] were 339 nM and 1000 nM, respectively.
